Assay results published in US20250163016A1, “PYRIDINE DERIVATIVE, PREPARATION METHOD THEREFOR AND USE THEREOF” (CHENGDU EASTON BIOPHARMACEUTICALS CO., LTD., priority 2022, published 2025).

Experiments:
[1] = test system: HL-60 cell subcutaneous heterograft tumor; experiment: In-vivo efficacy in HL-60 cell subcutaneous heterograft tumor model; parameters: species or system Balb/C nu mice; details: HL-60 xenograft, qd, p.o., 10 mg/Kg, 10 days
Description: • DMEM culture medium containing 10% fetal bovine serum (FBS), 37° C., 5% CO2.
(§1) Balb/C nu mice, female, 6-8 weeks, weight about 18-22 grams, and each mouse was subcutaneously inoculated with 0.1 mL (1×10^7 cells+matrigel) of HL-60 cells on the right side. When an average volume of tumors reached 100-200 cubic millimeters, group administration was performed, see the table below (Table 13) for administration dosages and methods. The tumor volume was measured twice a week, the weights of the mice as well as lengths and widths of tumors were recorded in each time of measurement, and the tumor volume=length×width×width/2 mm^3. When the average tumor volume of a solvent group grew to 3000 cubic millimeters or above, administration was ended, and an average tumor volume difference between a tested compound group and the solvent group was obtained via comparison. The tumor suppression effects of the compounds were evaluated with TGI (%), which could reflect a tumor growth inhibition rate.

[2] = Pharmacokinetics of oral administration of mice under different solvent conditions; assay type: in vivo; details: male, Balb/c, mouse, plasma, 5 mg/kg, p.o. 5.0 mg/kg
Description: With Balb/c mice as tested animals, blood drug concentrations of the compounds of the present application in plasma at different moments after administration of the mice under different solvent conditions were determined using an LC-MS/MS method. Pharmacokinetic parameters of the compounds of the present application in the mice under the different solvent conditions were obtained, and pharmacokinetic characteristics of the compounds were studied.
• Balb/c mice, male, weight 18-22 g, 6 mice per group. The animals were fed in an animal house after being purchased, an adaptation period was at least 3 days, and they were used for tests after passing quarantine.
According to Table 8, each group of mice was given the corresponding tested drugs or positive drugs by gavage, before administration, and 15 min, 30 min, 1 h, 2 h, 4 h, 6 h, 8 h, 10 h and 24 h after administration, a fixed volume of blood was collected through eye sockets and placed in an EDTA-K2 anticoagulant tube, centrifuging was carried out at 8000 rpm for 1 min to separate plasma into a centrifuge tube, and the plasma was frozen in a −20° C. refrigerator.
The plasma at each time point stored at −20° C. was taken out, then acetonitrile was added, after whirling at 1500 revolutions for 2 min, centrifuging was carried out for 15 min (3500 r/min), and a fixed volume of solution supernatant was taken for LC-MS/MS analysis.
Non-compartment model fitting was carried out on pharmacokinetic behaviors of the tested compounds, and DAS3.31 software was adopted to calculate main pharmacokinetic parameters (T1/2, Tmax, Cmax, AUClast, etc.).

[3] = test system: Kasumi-1 cell subcutaneous heterograft tumor; experiment: In-vivo efficacy in Kasumi-1 cell subcutaneous heterograft tumor model; details: for weight of the mice after administration / tolerance of the tested animals: Kasumi-1 xenograft mice; for weight of the mice after administration: FIG. 3; for tolerance of the tested animals: qd p.o. 20 days; for TGI: Kasumi-1 xenograft, qd, p.o., 20 days
Description: • RPMI 1640 culture medium containing 20% fetal bovine serum (FBS), 37° C., 5% CO2.
• Solvent: 0.5% methylcellulose aqueous solution; • Tested drug: compounds 16 and 36.
as §1, with “CB17 SCID” for “Balb/C nu”, “Kasumi-1” for “HL-60”, “12)” for “13)”, “ended, each group of mice was killed and dissected to take out tumor lumps, the tumor weight of each mouse was weighed and the tumor volume was measured,” for “ended,”
Calculation of TGI (%):TGI (%)=[1−(current average tumor volume of compounds−average tumor volume at the beginning of compounds)/(current average tumor volume of solvent group−average tumor volume at the beginning of solvent group)]×100%

LSD1 = target: T1, LSD1 (Homo sapiens, UniProt O60341); experiment: LSD1 activity test (HTRF); assay type: biochemical; details: H3(1-21)K4 me1-biotin substrate, read-out: IC50, inhibitory activity on LSD1
T1 construct: purchased Active Motif 31432
Description: In this test, a homogeneous time resolved fluorescence (HTRF) technology was utilized, and the inhibitory activity of compounds on LSD1 was detected by adopting a two-step method. The first step was to incubate LSD1, compounds of different concentrations, and a biotin-labeled methylated polypeptide substrate (H3(1-21)K4 me1-biotin) at the room temperature for fixed time.
A corresponding solution with a 1000-fold final concentration was formed by dilution in a 384-well Source plate, and then Echo550 was used for transferring 10 nL to a 384-well reaction plate for being tested.
An inhibition percentage was calculated using a maximum value, a minimum value, and a signal value (maximum value: fluorescence intensity of 5 μL of 2× enzyme solution+5 μL of 2× substrate mixed solution+10 nL of 100% DMSO+10 μL of detection solution; minimum value: fluorescence intensity of 5 μL of 1× reaction solution+5 μL of 2× substrate mixed solution+10 nL of 100% DMSO+10 μL of detection solution; and signal value: fluorescence intensity of 5 μL of 2× enzyme solution+5 μL of 2× substrate mixed solution+10 nL of diluted compound to be tested+10 μL of detection solution), and a calculation formula was as follows: […]
Using a logarithm of the concentration as an X axis and the percentage inhibition rate as a Y axis, a dose-response curve was fitted using a formula log(inhibitor) vs. response-Variable slope (Four parameters) of analysis software Graphpad Prism 5 to obtain the IC50 value of each compound on the enzyme activity.

[4] = solvent 0.5% sodium methylcellulose aqueous solution
[5] = solvent 5% DMSO + 10% Solutol + 85% Saline

SMILES	TGI [1] [%]	AUC(0-t) [2, 4] [ng·h/mL]	Tmax [2, 4] [h]	half-life [2, 4] [h]	AUC(0-t) [2, 5] [ng·h/mL]	Cmax [2, 5] [ng/mL]	Tmax [2, 5] [h]	half-life [2, 5] [h]	weight of the mice after administration [3]	tolerance of the tested animals [3]	TGI ([3]; 3.5 mg/Kg) [%]	TGI ([3]; 5 mg/Kg) [%]	Cmax [2, 4] [ng/mL]	IC50 (LSD1) [nM]
COc1ccc(-c2c(-c3ccc(C#N)c(F)c3)nc(N3CCC(N)CC3)n(C)c2=O)cc1F [CC-90011, reference compound]	35.3	965 ± 120	3.33 ± 1.15	5.01 ± 0.04	871 ± 270	173 ± 50.9	1	2.44 ± 0.34						
CC(C)(O)Cn1ncc2cc(-c3c(C#N)cc(N4CCC(N)CC4)nc3-c3ccc(C#N)c(F)c3)c(F)cc21 [Compound 16, 6-(4-aminopiperid-1-yl)-2-(4-cyano-3-fluorophenyl)-3-(6-fluoro-1-(2-hydroxyl-2-methylpropyl)-1H-indazol-5-yl)isonicotinonitrile]	73.2	3220 ± 1510	3.33 ± 1.15	3.99 ± 0.59	2420 ± 123	612 ± 111	2.67 ± 1.15	5.52 ± 0.67	does not decrease	good tolerance	78.28	86.13	895 ± 499	0.23
CC(C)(O)Cn1nc(F)c2cc(-c3c(C#N)cc(N4CCC(N)CC4)nc3-c3ccc(C#N)c(F)c3)c(F)cc21 [Compound 36, 6-(4-aminopiperid-1-yl)-2-(4-cyano-3-fluorophenyl)-3-(3,6-difluoro-1-(2-hydroxyl-2-methylpropyl)-1H-indazol-5-yl)isonicotinonitrile]									does not decrease	good tolerance		84.87		0.45
